In patent publication US11180474B2 (BRISTOL-MYERS SQUIBB COMPANY, priority 2016, dated 2021):
Structures can show the parent of a compound that is named as a salt.

Key:
[1] = biological target: T1, human TLR9 (Homo sapiens, UniProt Q9NR96); assay: TLR9 inhibition reporter assay (HEK-Blue cells, SEAP reporter, ODN2006 stimulation); assay type: cell-based; details: HEK-Blue cells overexpressing human TLR9, ODN2006 5 nM
T1 construct: host or cells: HEK-Blue cells
T1 sequence (Q9NR96 26-1032): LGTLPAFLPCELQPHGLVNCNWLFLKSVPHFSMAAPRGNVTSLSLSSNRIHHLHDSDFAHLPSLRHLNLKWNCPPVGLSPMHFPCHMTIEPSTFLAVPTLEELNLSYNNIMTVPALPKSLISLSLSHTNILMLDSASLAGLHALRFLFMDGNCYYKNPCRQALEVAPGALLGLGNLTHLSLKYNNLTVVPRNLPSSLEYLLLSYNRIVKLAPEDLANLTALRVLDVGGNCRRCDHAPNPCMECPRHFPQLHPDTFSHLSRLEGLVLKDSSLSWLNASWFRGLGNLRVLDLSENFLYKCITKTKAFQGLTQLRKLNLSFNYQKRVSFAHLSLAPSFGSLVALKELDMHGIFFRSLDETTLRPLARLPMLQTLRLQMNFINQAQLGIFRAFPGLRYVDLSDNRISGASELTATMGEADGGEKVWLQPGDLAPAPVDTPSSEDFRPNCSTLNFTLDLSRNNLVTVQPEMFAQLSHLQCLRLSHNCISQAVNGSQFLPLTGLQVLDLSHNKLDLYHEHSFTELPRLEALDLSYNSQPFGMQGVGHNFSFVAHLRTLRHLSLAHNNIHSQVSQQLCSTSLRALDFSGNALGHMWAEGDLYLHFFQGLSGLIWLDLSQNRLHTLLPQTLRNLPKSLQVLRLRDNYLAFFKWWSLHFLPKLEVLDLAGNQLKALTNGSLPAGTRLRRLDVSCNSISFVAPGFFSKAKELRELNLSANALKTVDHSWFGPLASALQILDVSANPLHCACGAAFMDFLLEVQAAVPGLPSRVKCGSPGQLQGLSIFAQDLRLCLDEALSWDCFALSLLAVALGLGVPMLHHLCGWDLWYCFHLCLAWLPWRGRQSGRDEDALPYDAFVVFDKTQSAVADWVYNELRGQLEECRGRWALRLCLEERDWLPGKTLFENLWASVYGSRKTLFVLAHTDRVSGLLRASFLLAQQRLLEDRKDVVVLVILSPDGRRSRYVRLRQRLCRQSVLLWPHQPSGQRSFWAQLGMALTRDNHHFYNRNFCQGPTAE
In short: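 HEK-Blue cells overexpressing human TLR7, TLR8 or TLR9 carry a SEAP reporter driven by NF-κB/AP-1 sites. Compounds (0.05 nM–50 μM) were preincubated 30 min at room temperature, then cells were stimulated with gardiquimod 7.5 μM (TLR7), R848 15.9 μM (TLR8) or ODN2006 5 nM (TLR9) for 22 h at 37 °C.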

[2] = biological target: T2, human TLR8 (Homo sapiens, UniProt Q9NR97); assay: TLR8 inhibition reporter assay (HEK-Blue cells, SEAP reporter, R848 stimulation); assay type: cell-based; details: HEK-Blue cells overexpressing human TLR8, R848 15.9 μM
T2 construct: host or cells: HEK-Blue cells
T2 sequence (Q9NR97 27-1041): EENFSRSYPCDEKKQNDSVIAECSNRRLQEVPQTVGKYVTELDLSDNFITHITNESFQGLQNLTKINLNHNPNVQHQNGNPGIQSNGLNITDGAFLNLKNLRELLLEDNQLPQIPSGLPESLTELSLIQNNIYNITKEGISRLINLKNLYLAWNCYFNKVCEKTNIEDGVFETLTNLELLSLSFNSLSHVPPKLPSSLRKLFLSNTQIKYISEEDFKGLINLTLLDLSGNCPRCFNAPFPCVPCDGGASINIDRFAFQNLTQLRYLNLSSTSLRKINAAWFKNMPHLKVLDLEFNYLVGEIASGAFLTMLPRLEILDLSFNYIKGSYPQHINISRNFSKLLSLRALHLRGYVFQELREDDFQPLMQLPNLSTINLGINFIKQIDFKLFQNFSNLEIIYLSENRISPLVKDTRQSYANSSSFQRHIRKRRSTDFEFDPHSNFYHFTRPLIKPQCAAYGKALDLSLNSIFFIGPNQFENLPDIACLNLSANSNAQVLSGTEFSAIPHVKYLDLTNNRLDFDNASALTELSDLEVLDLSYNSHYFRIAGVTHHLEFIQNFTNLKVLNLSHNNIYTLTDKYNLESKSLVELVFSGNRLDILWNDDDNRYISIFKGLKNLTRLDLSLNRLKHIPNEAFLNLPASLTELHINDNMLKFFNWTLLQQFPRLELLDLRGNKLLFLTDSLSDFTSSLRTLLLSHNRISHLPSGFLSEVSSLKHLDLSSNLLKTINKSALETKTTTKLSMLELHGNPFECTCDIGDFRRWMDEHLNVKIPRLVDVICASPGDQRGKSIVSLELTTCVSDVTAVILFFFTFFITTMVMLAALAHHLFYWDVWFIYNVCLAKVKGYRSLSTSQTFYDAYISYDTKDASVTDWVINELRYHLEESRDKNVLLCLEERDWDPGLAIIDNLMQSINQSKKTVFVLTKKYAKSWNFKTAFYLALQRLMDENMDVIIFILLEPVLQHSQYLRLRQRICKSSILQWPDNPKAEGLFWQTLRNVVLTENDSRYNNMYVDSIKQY
Procedure: TLR7/8/9 Inhibition Reporter Assays
Briefly, cells are seeded into Greiner 384 well plates (15000 cells per well for TLR7, 20,000 for TLR8 and 25,000 for TLR9) and then treated with test compounds in DMSO to yield a final dose response concentration range of 0.05 nM-50 μM. […] After a 22 hour incubation at 37° C., 5% CO2, SEAP levels are determined with the addition of HEK-Blue™ Detection reagent (Invivogen), a cell culture medium that allows for detection of SEAP, according to manufacturer's specifications. The percent inhibition is determined as the % reduction in the HEK-Blue signal present in wells treated with agonist plus DMSO alone compared to wells treated with a known inhibitor.

SMILES | IC50 [1] [nM] | IC50 [2] [nM]
CCc1c(-c2ccc(OC)c(OC)c2)[nH]c2ccc(C3CCN(C(=O)CN4CC[C@@H](O)C4)CC3)cc12 [Example 173, (R)-1-(4-(2-(3,4-dimethoxyphenyl)-3-ethyl-1H-indol-5-yl)piperidin-1-yl)-2-(3-hydroxypyrrolidin-1-yl)ethan-1-one] | 2240 | 25
COc1ccc(-c2[nH]c3ccc(C4CCN(C(=O)CNCC(C)O)CC4)cc3c2C(C)C)cc1OC (stereo not shown) [Example 210, 1-(4-(2-(3,4-dimethoxyphenyl)-3-isopropyl-1H-indol-5-yl)piperidin-1-yl)-2-((2-hydroxypropyl)amino)ethan-1-one] | 1930 | 25
COc1ccc(-c2[nH]c3ccc(C4CCN(C5CCN(CC6CC6)CC5)CC4)cc3c2C(C)C)cc1OC [Example 198, 5-(1′-(cyclopropylmethyl)-[1,4′-bipiperidin]-4-yl)-2-(3,4-dimethoxyphenyl)-3-isopropyl-1H-indole di trifluoroacetic acid] | 490 | 22
COc1ccc(-c2[nH]c3ccc(C4CCN(C5CCN(C6CCCC6)CC5)CC4)cc3c2C(C)C)cc1OC [Example 202, 5-(1′-cyclopentyl-[1,4′-bipiperidin]-4-yl)-2-(3,4-dimethoxyphenyl)-3-isopropyl-1H-indole] | 340 | 13
CCc1c(-c2ccc(OC)c(OC)c2)[nH]c2ccc(C3CCN(C4CCN(C5CCCC5)CC4)CC3)cc12 [Example 152, 5-(1′-cyclopentyl-[1,4′-bipiperidin]-4-yl)-2-(3,4-dimethoxyphenyl)-3-ethyl-1H-indole] | 233 | 33
CNCCN1CCC(c2cc3c(C(C)C)c(-c4ccc(OC)c(OC)c4)[nH]c3cc2F)CC1 [Example 208, 2-(4-(2-(3,4-dimethoxyphenyl)-6-fluoro-3-isopropyl-1H-indol-5-yl)piperidin-1-yl)-N-methylethan-1-amine] | 374 | 35
CCc1c(-c2ccc(OC)c(OC)c2)[nH]c2c(F)cc(C3CCNCC3)cc12 [Example 189, 2-(3,4-dimethoxyphenyl)-3-ethyl-7-fluoro-5-(piperidin-4-yl)-1H-indole] | 1150 | 620
COc1ccc(-c2[nH]c3ccc(C4CCN(C(=O)CNC5CCC(N(C)C)CC5)CC4)cc3c2C(C)C)cc1OC (stereo not shown) [Example 215, 1-(4-(2-(3,4-dimethoxyphenyl)-3-isopropyl-1H-indol-5-yl)piperidin-1-yl)-2-((4-(dimethylamino)cyclohexyl)amino)ethan-1-one] | 2020 | 163
COc1ccc(-c2[nH]c3ccc(C4CCNCC4)cc3c2C(C)C)cc1OC [Example 194, 2-(3,4-dimethoxyphenyl)-3-isopropyl-5-(piperidin-4-yl)-1H-indole hydrochloride] | 5010 | 54
CCc1c(-c2ccc(OC)c(OC)c2)[nH]c2c(F)cc(C3CCN(CCNC)CC3)cc12 [Example 191, 2-(4-(2-(3,4-dimethoxyphenyl)-3-ethyl-7-fluoro-1H-indol-5-yl)piperidin-1-yl)-N-methylethan-1-amine] | 1220 | 110
CCc1c(-c2ccc(OC)c(OC)c2)[nH]c2ccc(C3CCN(C4CCN(Cc5ccccc5)CC4)CC3)cc12 [Example 147, 5-(1′-benzyl-[1,4′-bipiperidin]-4-yl)-2-(3,4-dimethoxyphenyl)-3-ethyl-1H-indole] | 552 | 101
CCc1c(-c2ccc(OC)c(OC)c2)[nH]c2ccc(C3CCN(C(=O)C4CCNCC4)CC3)cc12 [Example 186, (4-(2-(3,4-dimethoxyphenyl)-3-ethyl-1H-indol-5-yl)piperidin-1-yl)(piperidin-4-yl) methanone] | 991 | 132
CCc1c(-c2ccc(OC)c(OC)c2)[nH]c2ccc(C3CCN(C(=O)CN4CCCC(C(=O)N(CC)CC)C4)CC3)cc12 (single isomer, unassigned) [Example 178, 1-(2-(4-(2-(3,4-dimethoxyphenyl)-3-ethyl-1H-indol-5-yl)piperidin-1-yl)-2-oxoethyl)-N,N-diethylpiperidine-3-carboxamide] | 5230 | 131
COc1ccc(-c2[nH]c3ccc(C4CCN(C5CCN(C)CC5)CC4)cc3c2C(C)C)cc1OC [Example 200, 2-(3,4-dimethoxyphenyl)-3-isopropyl-5-(1′-methyl-[1,4′-bipiperidin]-4-yl)-1H-indole] | 1260 | 27
CCc1c(-c2ccc(OC)c(OC)c2)[nH]c2ccc(C3CCN(C(=O)CNCCO)CC3)cc12 [Example 159, 1-(4-(2-(3,4-dimethoxyphenyl)-3-ethyl-1H-indol-5-yl)piperidin-1-yl)-2-((2-hydroxyethyl)amino) ethan-1-one] | 3380 | 26
CNCCN1CCC(c2ccc3[nH]c(-c4ccc(OC)c(OC)c4)c(CC(C)C)c3c2)CC1 [Example 116, trifluoroacetic acid] | 830 | 95
CCc1c(-c2ccc(OC)c(OC)c2)[nH]c2cc(C)c(C3CCN(CCNC)CC3)cc12 [Example 188, 2-(4-(2-(3,4-dimethoxyphenyl)-3-ethyl-6-methyl-1H-indol-5-yl)piperidin-1-yl)-N-methylethanamine-di-trifluoroacetic acid] | 613 | 213
COc1ccc(-c2[nH]c3ccc(C4CCN(C(=O)CNC(CO)CO)CC4)cc3c2C(C)C)cc1OC [Example 220, 2-((1,3-dihydroxypropan-2-yl)amino)-1-(4-(2-(3,4-dimethoxyphenyl)-3-isopropyl-1H-indol-5-yl)piperidin-1-yl)ethan-1-one] | 5580 | 21
CCc1c(-c2ccc(OC)c(OC)c2)[nH]c2ccc(C3CCN(C4CCN(Cc5ccc(C)s5)CC4)CC3)cc12 [Example 140, 2-(3,4-dimethoxyphenyl)-3-ethyl-5-(1′-((5-methylthiophen-2-yl)methyl)-[1,4′-bipiperidin]-4-yl)-1H-indole] | 479 | 240
CCc1c(-c2ccc(OC)c(OC)c2)[nH]c2ccc(C3CCN(C(=O)CNCC#N)CC3)cc12 [Example 161, 2-((2-(4-(2-(3,4-dimethoxyphenyl)-3-ethyl-1H-indol-5-yl)piperidin-1-yl)-2-oxoethyl)amino)acetonitrile] | ≥ 50000 | 332
